Measured values: patent US20260345647A1, “AST-3424 COMBINATION FOR TREATING LEUKEMIA AND LYMPHOMA” (ASCENTAWITS PHARMACEUTICALS, LTD., priority 2022, published 2026)
“Also recorded” adds a separate entry of the source. Counter-ions that a name gives are not always drawn. Like-named read-outs stand apart in the source and are kept apart here. Each block holds one compound with its values, some of them ahead of it.

How the values were obtained:
liver cancer cells [1] = conditions: flow cytometry; Bax, Caspase3, PARP; cited from earlier work
cancer cells = conditions: cited from earlier work
tumor cells = conditions: Transwell; MMP-9; cited from earlier work
CCRF-CEM cells [2] = assay: In vitro cell proliferation assay, combination therapy (CellTiter-Glo); format: cell-based, human; conditions: 0.1 nM and 1 nM AST-3424
Procedure: (§1) On day 1, cells were seeded in 96-well cell culture plates (at 180 μL/well).
(§2) On day 2, 10 μL of a 20-fold test concentration of the AST-3424 solution (20-fold concentration of either of the two concentrations IC25 and IC10) was added. The cell plates were gently agitated, and were then placed in an incubator at 37 °C for further culture.
(§3) On day 3, to the combination therapy wells was added 10 μL of a 20-fold test concentration of the compound (cytarabine or daunorubicin) (20-fold concentration of each of the three concentrations IC50, IC25, and ICs), and to the monotherapy wells was added 10 μL of a culture medium containing 2% DMSO. The cell plates were gently agitated, and were then placed in an incubator at 37 °C for further 72 h.
(§4) After incubation, a reagent prepared according to the instructions for the CellTiter-Glo Reagent was added (at 50 μL/well). The cell plates were agitated thoroughly and were then incubated at room temperature in the dark for 10 minutes.
(§5) The cell plate was placed in a plate reader for analysis to detect chemiluminescence and record the data.
(§6) The readings in each well should be converted into cell viability, which was calculated by the formula as described in section 1.1.
(§7) The final viability percentages under different conditions were plotted into column charts.

MOLT-4 cells [3] = assay: as above; format: cell-based, human
Procedure: as §1, §2, §3, §4, §5, §6, §7

PF-382 cells [4] = assay: as above; format: cell-based, human; conditions: 0.64 and 2.5 nM AST-3424
Procedure: as §1, §2, §3, §4, §5, §6, §7

Jurkat, Clone E6-1 cells [5] = assay: as above; format: cell-based, human; conditions: 0.64 nM and 16 nM AST-3424
Procedure: as §1, §2, §3, §4, §5, §6, §7

SUP-T1 cells [6] = assay: as above; format: cell-based, human; conditions: 0.13 nM and 1 nM AST-3424
Procedure: as §1, §2, §3, §4, §5, §6, §7

liver cancer cells [7] = conditions: flow cytometry; cited from earlier work
[8] = tested on: five cell lines including CCRF-CEM, PF-382, Jurkat, Clone E6-1, SUP-T1, and MOLT-4; assay: In vitro cell proliferation assay, monotherapy, summary over five cell lines; format: cell-based, human; conditions: for inhibitory effects on cell proliferation: monotherapy, five cell lines
Procedure: as §1
(§8) On day 2, 20 μL of a 10-fold test concentration of the working solution of the compound (AST-3424) was added. The cell plates were gently agitated, and were then placed in an incubator at 37 °C for further culture.
(§9) On day 3, 20 μL of a 10-fold test concentration of the solution of the compound (cytarabine and daunorubicin) was added. The cell plates were gently agitated, and were then placed in an incubator at 37 °C for further 72 hours.
(§10) After incubation, to the cell plates was added a reagent prepared according to the Protocol for a […] CellTiter-Glo Reagent (50 μL/well). The plates were thoroughly agitated and were then incubated at room temperature in the dark for 10 minutes.
(§11) The cell plates were placed in a plate reader for analysis to detect chemiluminescence and record the data.
(§12) The readings in each well should be converted into cell viability, which was calculated by the following formula:
(§13) • 1. MOLT-4 and MOLT-3 were derived from a patient with acute lymphoblastic leukemia in relapse who had previously received polydrug combination chemotherapy. The MOLT-4 cell line was originated from T lymphocytes, wherein there is a G→A mutation in Codon 248 of the p53 gene with no expression of p53, immunoglobulin or Epstein-Barr virus, resulting in high levels of terminal deoxyribosyl transferase, and expression of CD1 (49%), CD2 (35%), CD3 A (26%) B (33%) C (34%), CD4 (55%), CD5 (72%), CD6 (22%), and CD7 (77%). The cell is a human acute lymphoblastic leukemia cell, and the corresponding disease is human T-cell acute lymphoblastic leukemia, or T-ALL. • 2. PF-382 is a human T-cell acute lymphoblastic leukemia cell, and the corresponding disease is human T-cell acute lymphoblastic leukemia, or T-ALL. • 3. Jurkat, Clone E6-1 is a clone of the Jurkat-FHCRC cell line, a derivative of the Jurkat cell line, which was established from the peripheral blood of a patient suffering from T-cell acute leukemia. It is a human T lymphocytic leukemia cell, and the corresponding disease is T-ALL. • 4. SUP-T1 is a human T lymphoblastoma cell, and the corresponding disease is T-cell Lymphoblastic Lymphoma (T-LBL). • 5. CCRF-CEM is a human acute lymphoblastic leukemia, T lymphocyte serum culture cell, which was obtained in November 1964 from the peripheral blood leukocytes of a patient suffering from acute lymphoblastic leukemia. The cell is a human T-cell acute lymphoblastic leukemia cell, and the corresponding disease is T-cell acute lymphoblastic leukemia, or T-ALL.

CCRF-CEM cells [9] = assay: In vitro cell proliferation assay, monotherapy (CellTiter-Glo); format: cell-based; conditions: Homo sapiens
Procedure: as §1, §8, §9, §10, §11, §12, §13

MOLT-4 cells [10] = assay: as above; format: cell-based; conditions: Homo sapiens
Procedure: as §1, §8, §9, §10, §11, §12, §13

PF-382 cells [11] = assay: as above; format: cell-based; conditions: Homo sapiens
Procedure: as §1, §8, §9, §10, §11, §12, §13

Jurkat, Clone E6-1 cells [12] = assay: as above; format: cell-based; conditions: Homo sapiens
Procedure: as §1, §8, §9, §10, §11, §12, §13

SUP-T1 cells [13] = assay: as above; format: cell-based; conditions: Homo sapiens
Procedure: as §1, §8, §9, §10, §11, §12, §13

HepG2 = conditions: HepG2, high AKR1C3 expression; cited from earlier work
TGF-β signaling pathway = conditions: cited from earlier work
PLC/PRF/5 = conditions: PLC/PRF/5, high AKR1C3 expression; cited from earlier work
[14] = cited from earlier work
[15] = Clinical plasma concentration (dose comparison and conversion); format: in vivo
From the text: Both daunorubicin and cytarabine are drugs used in clinical practice to treat leukemia or other tumors.

[16] = tested on: acute lymphoblastic leukemia; conditions: cited from earlier work
[17] = tested on: neuroblastoma and rhabdomyosarcoma; conditions: cited from earlier work
[18] = experiments that were conducted previously, read-out: IC50 (superscript 2)
[19] = monotherapy, 72 hours, read-out: IC50

IC50 (CCRF-CEM cells [9]; [18]): 14.9 nM
IC50 (CCRF-CEM cells [9]; [19]): 3.68 nM
IC50 (MOLT-4 cells [10]; [18]): 10 nM
IC50 (MOLT-4 cells [10]; [19]): 8.04 nM
IC50 (Jurkat, Clone E6-1 cells [12]; [18]): 24 nM
IC50 (Jurkat, Clone E6-1 cells [12]; [19]): 4620 nM
SMILES: C[C@H](OP(=O)(N1CC1)N1CC1)c1ccc([N+](=O)[O-])c(Oc2cccc(C(=O)N(C)C)c2)c1 [AST-3424]
apoptosis induction (liver cancer cells [1]): may induce apoptosis by upregulating Bax and Caspase3 proteins and downregulating the PARP protein
toxicity to cancer cells (cancer cells; AST-3424 itself (prodrug)): low toxicity to cancer cells
dependence of potency on AKR1C3 expression level (cancer cells; animal models and in vitro pharmacological experiments): dependent on the level of AKR1C3 expression; also recorded: positively correlated with AKR1C3 expression levels
migration and invasion of tumor cells (tumor cells): could inhibit the migration and invasion of tumor cells
effect on proliferation, AST-3424 monotherapy (CCRF-CEM cells [2]): no effect
effect on proliferation, AST-3424 monotherapy (MOLT-4 cells [3]; 3.2 nM and 6.4 nM AST-3424): no significant effect
effect on proliferation, AST-3424 monotherapy (PF-382 cells [4]): no significant effect
effect on proliferation, AST-3424 monotherapy (Jurkat, Clone E6-1 cells [5]): no significant effect
effect on proliferation, AST-3424 monotherapy (SUP-T1 cells [6]): no effect
cell cycle block (liver cancer cells [7]): could block the cells in the S phase
in vitro cytotoxicity compared with daunorubicin and cytarabine ([8]; four cell lines except Jurkat, Clone E6-1): superior to that of daunorubicin and cytarabine
inhibitory effects on cell proliferation [8]: good inhibitory effects
IC50 (PF-382 cells [11]; [18]): 3 nM
IC50 (PF-382 cells [11]; [19]): 4.09 nM
IC50 (SUP-T1 cells [13]; [18]): 3.7 nM
IC50 (SUP-T1 cells [13]; [19]): 2.47 nM
inhibitory effects (HepG2): excellent inhibitory effects
effect on TGF-β signaling pathway / proliferation (TGF-β signaling pathway): could reduce the proliferation effect by inhibiting the TGF-β signaling pathway
inhibitory effects (PLC/PRF/5): excellent inhibitory effects

concentration ([15]; 1.8-3 g/m^2, administration with 12 times, converted from steady concentration, read-out: Molar concentration after conversion (steady concentration)): 32 to 97 µM
IC50 (CCRF-CEM cells [9]; [19]): 82.2 nM
IC50 (MOLT-4 cells [10]; [19]): 120 nM
IC50 (Jurkat, Clone E6-1 cells [12]; [19]): 100 nM
SMILES: Nc1ccn([C@@H]2O[C@H](CO)[C@@H](O)[C@@H]2O)c(=O)n1 [Cytarabine, cytarabine, reference compound]
Steady plasma concentration ([14]; 1.8-3 g/m^2, administration with 12 times, steady concentration): 8 to 24 µg/mL
inhibitory effects on cell proliferation [8]: good inhibitory effects
IC50 (PF-382 cells [11]; [19]): 26.4 nM
IC50 (SUP-T1 cells [13]; [19]): 856 nM

IC50 (CCRF-CEM cells [9]; [19]): 30.7 nM
IC50 (MOLT-4 cells [10]; [19]): 24.2 nM
IC50 (Jurkat, Clone E6-1 cells [12]; [19]): 41 nM
SMILES: COc1cccc2c1C(=O)c1c(O)c3c(c(O)c1C2=O)C[C@@](O)(C(C)=O)C[C@@H]3O[C@H]1C[C@H](N)[C@H](O)[C@H](C)O1 [Daunorubicin hydrochloride, daunorubicin hydrochloride, reference compound]
IC50 (PF-382 cells [11]; [19]): 14.2 nM
IC50 (SUP-T1 cells [13]; [19]): 30.6 nM

Cmax ([15]; human, plasma, 44 mg/m^2, administration on day 1, 3, 5, converted from Cmax, read-out: Molar concentration after conversion (Cmax)): 49 µM
SMILES: COc1cccc2c1C(=O)c1c(O)c3c(c(O)c1C2=O)C[C@@](O)(C(C)=O)C[C@@H]3O[C@H]1C[C@H](N)[C@H](O)[C@H](C)O1 [daunorubicin]
Plasma Cmax ([14]; 44 mg/m^2, administration on day 1, 3, 5, Cmax): 26000 ng/mL
remission rate ([16]; acute lymphoblastic leukemia): high remission rate
side effects ([16]; clinical use): severe side effects
potency on cell proliferation, daunorubicin (MOLT-4 cells [3]; 40 nM daunorubicin): very significant potency
inhibitory effects on cell proliferation [8]: good inhibitory effects
therapeutic effects [17]: excellent therapeutic effects
